According to patent publication US4455312A:
Counter-ions that a name gives are not always drawn. Like-named read-outs stand apart in the source and are kept apart here.

How the values were obtained:
in vivo = test: in vivo
Protocol: (§1) 2-(o-carboxyphenylamino)-6-H-pyrimido(2,1-b)-quinazolone-6 and its derivatives were tested for acute toxicity.
(§2) Acute toxicity of 2-(o-carboxyphenylamino)-6H-pyrimido(2,1-b)-quinazolone-6and its derivatives was determined in intra-abdominal and peroral administration; for cats in peroral administration. […] The statistical analysis of obtained data was carried out in accordance with the method of Litchfield, Wilcockson and Van der Waerden.

[1] = Acute toxicity in rabbits (LD50); conditions: rabbit, in vivo, ip, rabbits, intra-abdominal, Van der Waerden
Protocol: as §1, §2

[2] = Acute toxicity in cats (LD50); conditions: cat, in vivo, po
Protocol: as §1, §2

pyrogenal fever = test: Antipyretic effect in pyrogenal fever; conditions: rats
Protocol: Antipyretic effect of 2-(o-carboxyphenylamino)-6H-pyrimido(2,1-b)-quinazolone-6 and its derivatives were investigated in rats suffering from pyrogenal fever. Maximum decrease in the temperature (degrees) was determined.

rats = test: in vivo; conditions: rat, 168 h
Protocol: as §1, §2

white mice = test: in vivo; conditions: mouse, 168 h
Protocol: as §1, §2

rabbits = test: Acute toxicity in rabbits (LD50); conditions: rabbit, in vivo, 10080 min
Protocol: as §1, §2

carrageenin edema = tested on: carrageenin edema
Protocol: (§3) The growth of foot endema in the rat was registered in dynamics after each hour from the moment of subplantar administration of a stimulus during 5 hours. Percentage of inhibition of the foor emeda in the rat was calculated from the following formula: [formula] where
(§4) Vk is the volume of a control edematic foot minus the initial volume of the same foot prior to edema;
(§5) Vo is the volume of the tested edematic foot minus the initial volume of the same foot prior to edema.
A carrageenin edema was induced by subplantar administration in rats of 0.1 ml 1% solution of carrageenin (polysaccharide prepared from Iceland or pearl moss).

[3] = tested on: threshold of pain sensitivity in contact-heat stimulation
[4] = tested on: formalin edema of a foot in the rat; conditions: for other symptoms of inflammation (hyperemia, painfulness) and formation of necrotic foci: formalin inflammation
Protocol: as §3, §4, §5

cotton granuloma = test: whole plant or invertebrate
Excerpt: The term "cotton granuloma" means hereinafter the formation of a granular-fibrous tissue around cotton balls implanted into experimental animals.

ovalbumin edema = test: Ovalbumin edema of rat foot; assay type: in vivo, rats; conditions: 1/10 LD50 intra-abdominal
Protocol: An ovalbumin edema was induced by subplantar administration in rats of egg albumin (0.1 ml per foot). The edema developed very intensely, i.e. reached the maximum magnitude (191%) as soon as 1 hour following the injection of ovalbumin, and completely disappeared by the end of the day.
The preparations under studies were administered in the given investigations in a dose corresponding to 1/10LD50 for the rats in the intra-abdominal administration.

Solubility = assay type: physicochemical
[5] = rat, in vivo, ip, hydrochloride
[6] = read-out: Percentage of inhibition (cotton granuloma)

## O=C(O)c1ccccc1Nc1ccn2c(=O)c3ccccc3nc2n1
In vivo; mouse, ip
  LD50 at 168 h: 1050 mg/kg
In vivo; mouse, po
  LD50 at 168 h: 3400 mg/kg
In vivo; rat, ip
  LD50 at 168 h: 980 mg/kg
In vivo; rat, po
  LD50 at 168 h: 3800 mg/kg
[1]
  LD50 at 168 h: 1750 mg/kg
[2]
  LD50 at 168 h: 5000 mg/kg

## COC(=O)c1ccccc1Nc1ccn2c(=O)c3ccccc3nc2n1
In vivo; mouse, ip
  LD50 at 168 h: 1160 mg/kg

## O=C(O)c1ccccc1Nc1ccn2c(=O)c3ccccc3nc2n1 [2-(o-carboxyphenylamino)6H-pyrimido(2,1-b)-quinazolone-6 hydrochloride]
Pyrogenal fever; 5% of LD50 (hydrochloride's dose not printed separately)
  Antipyretic effect (maximum decrease in temperature): 1.4 °C
rats; ip
  LD50: 980 mg/kg
rats; po
  LD50: 3800 mg/kg
White mice; ip
  LD50: 1050 mg/kg
White mice; po
  LD50: 3400 mg/kg
rabbits; ip
  LD50: 1750 mg/kg
rabbits; po, hydrochloride
  LD50: 500 mg/kg
Carrageenin edema; 25 mg/kg intra-abdominal
  Percentage of inhibition (carrageenin edema): 12%
Carrageenin edema; 49 mg/kg intra-abdominal
  Percentage of inhibition (carrageenin edema): 26%
Carrageenin edema; 98 mg/kg intra-abdominal
  Percentage of inhibition (carrageenin edema): 55%
Carrageenin edema; [5]
  Therapeutic index (carrageenin edema): 10.9
[3]; 52 mg/kg, hydrochloride
  Increase in latent period of pain reaction in mice: 31%
[3]; 105 mg/kg, hydrochloride
  Increase in latent period of pain reaction in mice: 52%
[3]; 157 mg/kg, hydrochloride
  Increase in latent period of pain reaction in mice: 62%
[3]; mouse, in vivo, hydrochloride
  Therapeutic index (analgetic activity): 11.0
[4]; 5 mg/kg intra-abdominal
  Percentage of inhibition (formalin edema): 31%
[4]; 10 mg/kg intra-abdominal
  Percentage of inhibition (formalin edema): 50%
[4]; 49 mg/kg intra-abdominal
  Percentage of inhibition (formalin edema): 57%
[4]; 98 mg/kg intra-abdominal
  Percentage of inhibition (formalin edema): 71%
[4]; comparison of preparations
  depression of formalin edema of a foot in the rat (in words): the most actively depressed
[4]; [5]
  Therapeutic index (formalin edema): 61.2
Cotton granuloma; 48 mg/kg
  Percentage of inhibition (cotton granuloma): 18%
Cotton granuloma; 95 mg/kg
  Percentage of inhibition (cotton granuloma): 24%
Cotton granuloma; 190 mg/kg
  Percentage of inhibition (cotton granuloma): 52%
Cotton granuloma; cotton granuloma
  antiproliferative effect (in words): the most effective among the given preparations
  pharmacotherapeutic width of effect relative to mephenamine acid, sodium salicylate, and phenylbutazone: three times
Cotton granuloma; in vivo, hydrochloride
  Therapeutic index (cotton granuloma): 22.3

## CNC(=O)c1ccccc1Nc1ccn2c(=O)c3ccccc3nc2n1 [2-(o-methylcarbamidephenylamino)-6H-pyrimido(2,1-b)-quinazolone-6]
In vivo; mouse, ip
  LD50 at 168 h: 3000 mg/kg

## CC(C)Cc1ccc(C(C)C(=O)O)cc1 (centres unmarked) [Bruphen, 2-(para-isobutylphenyl)-propionic acid]
Pyrogenal fever; 70% of LD50
  Antipyretic effect (maximum decrease in temperature): 1.3 °C

## COc1ccc2c(c1)c(CC(=O)O)c(C)n2C(=O)c1ccc(Cl)cc1 [Indomethacin, 1-(para-chlorobenzoyl)5-methoxy-2-methyl-indole-3-acetic acid]
Pyrogenal fever; 70% of LD50
  Antipyretic effect (maximum decrease in temperature): 0.7 °C

## Cc1cccc(Nc2ccccc2C(=O)O)c1C [Mephenamine acid, N--(2,3-dimethylphenyl) anthranilic acid]
Pyrogenal fever; 70% of LD50
  Antipyretic effect (maximum decrease in temperature): 1.2 °C
Carrageenin edema; 25 mg/kg intra-abdominal
  Percentage of inhibition (carrageenin edema): 33%
Carrageenin edema; 50 mg/kg intra-abdominal
  Percentage of inhibition (carrageenin edema): 44%
Carrageenin edema; 100 mg/kg intra-abdominal
  Percentage of inhibition (carrageenin edema): 50%
[3]; 3.5 mg/kg
  Increase in latent period of pain reaction in mice: 18%
[3]; 7.0 mg/kg
  Increase in latent period of pain reaction in mice: 36%
[3]; 15 mg/kg
  Increase in latent period of pain reaction in mice: 43%
[3]; contact-heat stimulation
  analgetic activity (in words): possessed the most expressed analgetic effect
[4]; 9 mg/kg intra-abdominal
  Percentage of inhibition (formalin edema): 22%
[4]; 18 mg/kg intra-abdominal
  Percentage of inhibition (formalin edema): 24%
[4]; 36 mg/kg intra-abdominal
  Percentage of inhibition (formalin edema): 31%
[4]; 72 mg/kg intra-abdominal
  Percentage of inhibition (formalin edema): 33%
[4]
  other symptoms of inflammation (hyperemia, painfulness) and formation of necrotic foci: almost noncharacteristic
Cotton granuloma; cotton granuloma
  antiproliferative effect (in words): the most effective among the given preparations

## CCCCC1C(=O)N(c2ccccc2)N(c2ccccc2)C1=O [Phenylbutazone, 1,2-diphenyl-4-butyl pyrazolidine-dion-3,5]
Carrageenin edema; 21 mg/kg intra-abdominal
  Percentage of inhibition (carrageenin edema): 27%
Carrageenin edema; 42 mg/kg intra-abdominal
  Percentage of inhibition (carrageenin edema): 44%
Carrageenin edema; 84 mg/kg intra-abdominal
  Percentage of inhibition (carrageenin edema): 51%
Ovalbumin edema
  antiexudative / antiinflammatory effect in ovalbumin edema (in words): did not produce antiedematic effect
[3]; 25 mg/kg
  Increase in latent period of pain reaction in mice: 8%
[3]; 50 mg/kg
  Increase in latent period of pain reaction in mice: 43%
[3]; 100 mg/kg
  Increase in latent period of pain reaction in mice: 92%
[4]; 21 mg/kg intra-abdominal
  Percentage of inhibition (formalin edema): 17%
[4]; 42 mg/kg intra-abdominal
  Percentage of inhibition (formalin edema): 40%
[4]; 82 mg/kg intra-abdominal
  Percentage of inhibition (formalin edema): 51%

## O=C(O)c1ccccc1O [Sodium salicylate, 6-oxybenzoic acid, sodium salt]
Carrageenin edema; 65 mg/kg intra-abdominal
  Percentage of inhibition (carrageenin edema): 14%
Carrageenin edema; 90 mg/kg intra-abdominal
  Percentage of inhibition (carrageenin edema): 32%
Carrageenin edema; 130 mg/kg intra-abdominal
  Percentage of inhibition (carrageenin edema): 56%
Carrageenin edema; LD50/ED50, intra-abdominal
  Therapeutic index (carrageenin edema): 5.6
[3]; 32 mg/kg
  Increase in latent period of pain reaction in mice: 28%
[3]; 65 mg/kg
  Increase in latent period of pain reaction in mice: 38%
[3]; 130 mg/kg
  Increase in latent period of pain reaction in mice: 59%
[3]; LD50/ED50, contact-heat stimulation
  Therapeutic index (analgetic activity): 5.9
[4]; 65 mg/kg intra-abdominal
  Percentage of inhibition (formalin edema): 14%
[4]; 130 mg/kg intra-abdominal
  Percentage of inhibition (formalin edema): 24%
[4]; 260 mg/kg intra-abdominal
  Percentage of inhibition (formalin edema): 41%
[4]; LD50/ED50, intra-abdominal
  Therapeutic index (formalin edema): 1.8
[4]
  other symptoms of inflammation (hyperemia, painfulness) and formation of necrotic foci: almost noncharacteristic
Cotton granuloma; LD50/ED50
  Therapeutic index (cotton granuloma): 7.27
Cotton granuloma; [6]
  inhibition at 60 mg/kg: 8%
  inhibition at 80 mg/kg: 20%
  inhibition at 160 mg/kg: 36%
  inhibition at 240 mg/kg: 52%

## O=C(O)c1ccccc1Nc1ccn2c(=O)c3ccccc3nc2n1 [ethanol ammonium salt of 2-(o-carboxyphenylamino)-6H-pyrimid]
Solubility
  solubility (in words): soluble in water
